What was measured:
Format in all cases: cell-based, human
MRC5 cells [1] = assay: FGF-2-mediated secretion of VEGF and HGF with signal transduction inhibitors or neutralizing antibody, ELISA; conditions: MRC5, 10 ng/ml FGF-2, 72 hours; rapamycin 100 ng/ml, U0126 10 μmol/L, Ras-inhibitory peptide 50 μmol/L
Protocol: (A) Effect of various inhibitors of intracellular signal transduction pathways upon the secretion of VEGF and HGF in MRC5 cells. After 48 hours of preincubation in the presence of 1% FBS, cells were stimulated with 10 ng/ml of human recombinant FGF-2 in the presence or absence of various inhibitors. After 72 hours, the medium was subjected to ELISA. n=3 in each group. *P<0.01.
(C) Increases in FGF-2-mediated VEGF secretion completely depend on PDGFRα. After 48 hours of preincubation in the presence of 1% FBS, MRC5 cells were stimulated with 10 ng/ml of recombinant human FGF-2 in the presence or absence of an anti-PDGFRα neutralizing antibody. After 72 hours, the medium was subjected to ELISA. Similar results were obtained for the expression of HGF (data not shown). *P<0.01.
HSMC (J. Cell Biol., 50: 172-86 (1971)), MRC-5 (ATCC CCL-171), SAS (J. Biol. Chem., 270 (41): 24321-69 (1995)), MH134 (J. Natl. Cancer Inst., 17: 1-21 (1956)), QG56 (Int. J. Cancer, 35 (6): 808-12 (1985)), TF (Cancer, 69 (10): 2589-97 (1992)), KN (Cancer, 69 (10): 2589-97 (1992)), EBC-1 (Am. J. Pathol., 142 (2): 425-31 (1993)), PC9 (Int. J. Cancer, 15 (4): 449-55 (1985)), and COS7 Cells (ATCC CRL-1651) were purchased from American Type Culture Collection (ATCC). As mentioned previously, the intracellular signal inhibitors below were each used at the following concentrations for HSMC and MRC5 cells (Onimaru M et al., Circ Res. 91: 723-730 (2002)): Ras, Ras-inhibitory peptide (50 μmol/L, Alexis Japan, Tokyo, Japan); p70S6K, p70S6K inhibitor rapamycin (100 ng/ml, Sigma-Aldrich Japan, Tokyo, Japan); PKC, PKC inhibitor bisindolylmaleimide (100 nmol/L, Sigma); PI3K, PI3K-inhibitor wortmannin (120 nmol/L, Sigma); MEK inhibitor U0126 (10 μmol/L, Promega K.K., Tokyo, Japan); PKA, PKA-inhibitory peptide (1 μmol/L, Calbiochem, San Diego, Calif.); and […], NF-κB inhibitor ALLN (5 μmol/L, Roche Diagnostics, Tokyo, Japan).
(§1) As mentioned previously (Masaki I et al., Circ Res. 90: 966-973 (2002); Onimaru M et al., Circ Res. 91: 723-730 (2002)), the protein contents of the mouse limb muscle, tumor, and culture medium were determined using Quantikine Immunoassay systems for mice (both the 164 and 220 amino acid residue forms are recognized) and human VEGF-A, human FGF-2 (available to both human and mouse), human HGF (R&D Systems Inc., Minneapolis, Minn.), and rat HGF (available to mouse HGF; Institute of Immunology Inc., Tokyo, Japan), according to the manufacturer's instructions.

MRC5 cells [2] = assay: VEGF secretion after stimulation with FGF-2 and/or PDGF-AA, ELISA of culture medium; conditions: MRC5, serum-free, 72 hours
Protocol: (§2) (A) Recombinant FGF-2 and PDGF-AA work together to increase VEGF secretion from fibroblasts (MRC5) and vascular smooth muscle cells (HSMCs). After 48 hours of preincubation in serum-free conditions, each of the cell lines was stimulated with FGF-2 and/or PDGF-AA. After 72 hours, the cultured medium was subjected to ELISA. n3 in each group. *P<0.01. #P<0.05
as §1
(§3) To assess the role of the PDGF-AA signal in the angiogenic response of host vasculature, the FGF-2-mediated induction of VEGF and HGF in human mesenchymal cells (MRC5 and HSMC) cultured under serum-free conditions was investigated. […] In clinical application such as ischemia treatments, angiogenesis might also be induced more effectively by administering both FGF-2 and PDGF-AA, rather than either one alone.

HSMC [3] = assay: Northern blot of receptor mRNA after growth factor stimulation
Protocol: (§4) (B) A time course of FGF-2-mediated expression of PDGFRα mRNA in MRC5 cells and HSMCs was analyzed by Northern blotting. After 48 hours of preincubation under serum-free conditions, each of the cell lines was stimulated with FGF-2. Cells were harvested at the time indicated in the figure and then subjected to Northern blot analysis. Bands were visualized and subjected to densitometric analysis using a photoimager. The experience was carried out in duplicate and similar results were obtained.
(§5) Total cellular RNA, isolated using the ISOGEN system (Wako Pure Chemicals, Osaka, Japan), was electrophoresed and transferred onto a nylon membrane. The membranes were hybridized overnight at 60° C. with random-primed [α-^32P]dCTP-labeled probes. The bands were visualized and subjected to densitometry using a photoimager.
as §3

MRC5 cells [4] = assay: as above
Protocol: as §4, §5, §3

MRC5 cells [5] = assay: Northern blot time course of FGF-2-mediated VEGF mRNA expression; conditions: MRC5, 10 ng/ml FGF-2, Northern blot
Protocol: (B) A p70S6K inhibitor, Rapamycin (RAPA) stops the later phase of FGF-2-mediated VEGF mRNA expression in MRC5 cells. After 48 hours of preincubation in the presence of 1% FBS, cells were stimulated with 10 ng/ml of recombinant human FGF-2. Cells were harvested at the time indicated in the figure and then subjected to Northern blot analysis. The bands were visualized and subjected to densitometric analysis using a photoimager.
as §5

HSMC [6] = assay: VEGF secretion after stimulation with FGF-2 and/or PDGF-AA, ELISA of culture medium; conditions: serum-free, 72 hours
Protocol: as §2, §1, §3

In the case of N#CC(=C(/N)Sc1ccccc1N)/C(C#N)=C(\N)Sc1ccccc1N [MEK inhibitor, U0126, reference compound], the “FGF-2-mediated upregulation of HGF/SF protein” value (MRC5 cells [1]) is reported as “removed these effects” and the “FGF-2-mediated upregulation of VEGF protein” value (MRC5 cells [1]) is reported as “removed these effects”.

“FGF-2: human recombinant fibroblast growth factor-2 used to stimulate cells” was tested, and the “release of VEGF into the culture medium” value (MRC5 cells [2]) was “stimulated release of VEGF”, the PDGFRα transcription (HSMC [3]) was “upregulation” and the PDGFRα transcription (MRC5 cells [4]; MRC5, Northern blot) was “upregulation”. The “FGF-2-mediated upregulation of HGF/SF protein” value (MRC5 cells [1]) was “upregulated”, the “FGF-2-mediated upregulation of VEGF protein” value (MRC5 cells [1]) was “upregulated” and the “time course of FGF-2-mediated VEGF expression” value (MRC5 cells [5]) was “biphasic (at three hours and after that) upregulation”.

With “PDGF-AA: recombinant PDGF-A homodimer used to stimulate cells” the “level of VEGF in the culture medium” value (HSMC [6]) was “upregulated”, the “release of VEGF into the culture medium” value (MRC5 cells [2]) was “did not” and the FGFR1 expression (MRC5 cells [4]; data not shown) was “did not change”.

Reference: US20080199438A1, “Methods For Suppressing Tumor Proliferation” (DNAVEC RESEARCH INC., priority 2004, published 2008)
